Assay results: patent US4596808A, “Pharmacologically active 3-substituted beta-carbolines useful as tranquilizers” (Schering Aktiengesellschaft, priority 1980, dated 1986)
Read-outs that look alike come from different tables or passages of the source.

What was measured:
[1] = test system: benzodiazepine receptor; assay: In vivo inhibition of 3H-flunitrazepam binding to the benzodiazepine receptor in living brain (ED50); details: mice, subcutaneous, 3H-flunitrazepam i.v. 15 min later
[2] = target: benzodiazepine receptor; assay: Displacement of 3H-flunitrazepam from benzodiazepine receptors in vitro (IC50); type: binding; details: rat forebrain, 3H-flunitrazepam 1.0 nM, 0° C.
Source text: For example, it is known that certain locations in the central nervous system of vertebrates have a high specific affinity for bonding 1,4 and 1,5-benzodiazepines. (See, e.g., R. F. Squires & C. Braestrup, Nature [London] 266 [1977], 734, which is incorporated by reference herein). These locations are called benzodiazepine receptors.
This displacement activity of the compounds of this invention has been determined by measuring IC50 and ED50 values. The IC50 value is the concentration which causes a 50% displacement of the specific binding of ^3 H-flunitrazepam (1.0 nM, 0° C.) in samples with a total volume of 0.55 ml of a suspension of brain membrane, e.g., from rats.
The displacement test is carried out as follows:
0.5 ml of a suspension of untreated rat forebrain in 25 mM KH2 PO4, at a pH of 7.1 (5-10 mg of tissue per sample) were incubated with ^3 H-diazepam (specific activity 14.4 Ci/millimole, 1.9 nM) or ^3 H-flunitrazepam (specific activity 87 Ci/millimole, 1.0 nM) for 40-60 minutes at 0° C. After incubation, the suspension is filtered through a glass frit, the residue is washed twice with a cold buffer solution and the radioactivity is measured by scintillation counting.
The test is then repeated, except prior to addition of the radioactively marked benzodiazepine, a given amount or an excess amount of the compound whose displacement activity is to be ascertained, is added. The IC50 value can then be computed from the test results obtained.

[3] = test system: male mice; assay: Inhibition of aggression in isolated male mice; type: in vivo; details: Mus musculus, 0.5 h, half an hour
Procedure: The compounds of the invention have an antiaggressive effect on mice. Aggression inhibition was determined on male mice (NMR from Moellegard, Denmark) with weights of 20-22 g. The mice are kept isolated for three weeks in plastic cages and when two mice are subsequently put into the same cage, they will spontaneously and almost instantaneously start to fight.
J. Pharmacol., 1978, 47, 45-49. The compounds of this invention were administered subcutaneously and orally and the anti-aggressive effect half an hour later was determined. The ED50 values were determined from the test results. These test results are listed in Table 2 for compounds of this invention and also for several known tranquilizers.

[4] = test system: pentazole-induced convulsions; assay: Antagonism of pentazole-induced convulsions; type: in vivo; details: sc
Source text: Moreover, the antagonism of pentazole-induced convulsions was investigated.
The test has been performed according to known test models in pharmacology,e.g., described in R. A. Turner, Screening Methods in Pharmacology, Academic Press, N.Y. and London 1965, esp. p. 164 ff., or, Woodbury, P. M., Perry, I. K. and Schmidt, R. P. Antiepileptic Drugs, Raven Press, N.Y. 1972.

[5] = sc, s.c., read-out: Inhibition of Aggression ED50, s.c.
[6] = clonic, read-out: Antagonism of pentazole-induced convulsions, ED50 s.c., Clonic convulsions
[7] = death, read-out: Antagonism of pentazole-induced convulsions, ED50 s.c., Death
[8] = tonic, read-out: Antagonism of pentazole-induced convulsions, ED50 s.c., Tonic convulsions
[9] = po, p.o., read-out: Inhibition of Aggression ED50, p.o.

Row | Compound | In vivo ED50, inhibition of 3H flunitrazepam binding (Affinity for the benzodiazepine receptor) [1] | In vitro IC50, inhibition of 3H flunitrazepam binding (Affinity for the benzodiazepine receptor) [2] | ED50 [3, 5] | ED50 [4, 6] | ED50 [4, 7] | ED50 [4, 8] | ED50 [3, 9]
1 | CCOC(=O)Cc1cc2c(cn1)[nH]c1ccccc12 [CH2 COOC2 H5] | > 250 mg/kg | 363 ng/mL | 75 mg/kg |  |  |  | 
2 | CCOC(=O)C=Cc1cc2c(cn1)[nH]c1ccccc12 [CHCHCOOC2 H5, ethyl-3-(3-beta-carbolinyl)-acrylate] | > 250 mg/kg | 58.9 ng/mL | 4 mg/kg | > 100 mg/kg | 35 mg/kg | 100 mg/kg | 
3 | CC(=O)c1cc2c(cn1)[nH]c1ccccc12 [COCH3, 3-acetyl-beta-carboline] | 100 mg/kg | 22.4 ng/mL | 35 mg/kg | > 100 mg/kg | 75 mg/kg | 100 mg/kg | 
4 | CON=Cc1cc2c(cn1)[nH]c1ccccc12 [CHNOCH3, beta-carboline-3-carboxaldehyde-oxime-methylether] | 16 mg/kg | 51.3 ng/mL | 15 mg/kg |  |  |  | 
5 | O=Cc1cc2c(cn1)[nH]c1ccccc12 [CHO, beta-carboline-3-carboxaldehyde] | > 250 mg/kg | 30.2 ng/mL | 8 mg/kg |  |  |  | 
6 | CN(C)S(=O)(=O)c1ccc2[nH]c3cnc(C=NN4CCCC4)cc3c2c1 [drawing 48] |  |  |  | 50 mg/kg | 20 mg/kg | 20 mg/kg | 
7 | CN(C)N=Cc1cc2c(cn1)[nH]c1ccccc12 [drawing 40] |  |  | 7.5 mg/kg | 20 mg/kg | < 10 mg/kg | < 10 mg/kg | ≤ 50 mg/kg
8 | CC(=NN(C)C)c1cc2c(cn1)[nH]c1ccccc12 [drawing 42] |  |  |  | > 100 mg/kg | 75 mg/kg | 75 mg/kg | 
9 | C(=NN1CCCC1)c1cc2c(cn1)[nH]c1ccccc12 [drawing 45] |  |  |  | 20 mg/kg | 15 mg/kg | 15 mg/kg | 
10 | CC(=NO)c1cc2c(cn1)[nH]c1ccccc12 [drawing 39] |  |  |  |  |  |  | 75 mg/kg
11 | CCN(CC)N=Cc1cc2c(cn1)[nH]c1ccccc12 [drawing 41] |  |  |  | > 100 mg/kg | 100 mg/kg | 100 mg/kg | 
